Measured values as given in patent US10752587B2, “Homobispiperidinyl derivatives as liver X receptor beta agonists, compositions and their use” (Merck Sharp & Dohme Corp., priority 2015, dated 2020).
pEC50: −log10 of the molar value. Where two headings read alike, the source gives them in different places.

Key:
[1] = molecular target: T1, glutathione-S-transferase (GST) tagged LXRbeta LBD (ligand binding domain) (Homo sapiens, UniProt P55055); assay: LanthaScreen TR-FRET Liver X Receptor Coactivator Assay, co-activator recruitment to LXRbeta LBD; type: biochemical; settings: for Emax: read-out: LXR beta Activity @ max dose (%); for pEC50: read-out: LXR beta IP
T1 construct: purchased Invitrogen pv4658.pps
T1 sequence (P55055 222-460 limits assumed): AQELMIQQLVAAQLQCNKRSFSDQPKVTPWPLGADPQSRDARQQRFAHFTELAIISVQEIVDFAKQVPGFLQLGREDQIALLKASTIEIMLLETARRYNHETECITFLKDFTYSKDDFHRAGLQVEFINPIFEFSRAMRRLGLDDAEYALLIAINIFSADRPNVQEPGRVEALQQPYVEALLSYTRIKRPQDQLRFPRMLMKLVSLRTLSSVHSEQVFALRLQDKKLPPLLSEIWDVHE
Outline: (§1)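 TR-FRET coactivator recruitment; compound + LBD, then fluorescein-coactivator peptide/Tb-anti-GST Ab mix; RT incubation; IP and Emax vs T0901317.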

[2] = molecular target: T2, glutathione-S-transferase (GST) tagged LXRalpha LBD (ligand binding domain) (Homo sapiens, UniProt Q13133); assay: LanthaScreen TR-FRET Liver X Receptor Coactivator Assay, co-activator recruitment to LXRalpha LBD; type: biochemical; settings: for Emax: read-out: LXR alpha Activity @ max dose (%); for LXR alpha IP (nM) / pEC50: potency (Inflection Point, IP), co-activator recruitment to LXRalpha LBD, in relation to T0901317; for pEC50: read-out: LXR alpha IP
T2 construct: purchased Invitrogen pv4655
T2 sequence (Q13133 209-447 limits assumed): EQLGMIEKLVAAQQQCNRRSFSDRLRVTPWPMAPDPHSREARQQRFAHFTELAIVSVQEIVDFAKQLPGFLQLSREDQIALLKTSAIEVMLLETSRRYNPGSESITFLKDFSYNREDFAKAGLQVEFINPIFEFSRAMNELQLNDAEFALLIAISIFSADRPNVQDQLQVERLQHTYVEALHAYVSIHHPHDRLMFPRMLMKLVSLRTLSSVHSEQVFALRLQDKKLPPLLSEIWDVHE
Outline: as §1

[3] = efficacy at max dose, in relation to reference dual agonist T0901317
[4] = potency (Inflection Point, IP), co-activator recruitment to LXRbeta LBD, in relation to T0901317

SMILES	Emax [1, 3]	pEC50 [1, 4]	Emax [2, 3]	LXR alpha IP (nM) [2]	pEC50 [2]	EC50 ([1]; LXR beta IP (nM), potency (Inflection Point, IP), co-activator recruitment to LXRbeta LBD, in relation to T0901317)	Emax [1]	Emax [2]
CC(C)Oc1cccc([C@@](O)(C(=O)N2CC(CC3CCN(c4ccc(C(=O)N(C)C)c(Cl)n4)CC3)C2)C(F)(F)F)c1 [Example 7-42, 2-chloro-N,N-dimethyl-6-{4-[(1-{(2R)-3,3,3-trifluoro-2-hydroxy-2-[3-(1-methylethoxy)phenyl]propanoyl}azetidin-3-yl)methyl]piperidin-1-yl}pyridine-3-carboxamide]	83%	7.52	9%	NO IP	–	–	–	–
COc1cccc([C@@](O)(C(=O)N2CCC(C)(CC3CCN(c4ccc(C(=O)N(C)C)c(Cl)n4)CC3)CC2)C(F)(F)F)c1 [Example 7-51, 2-chloro-N,N-dimethyl-6-[4-({4-methyl-1[(2R)-3,3,3-trifluoro-2-hydroxy-2-(3-methoxyphenyl)propanoyl]piperidin-4-yl}methyl)piperidin-1-yl]pyridine-3-carboxamide]	35%	8.30	4%	NO IP	–	–	–	–
COc1cccc([C@@](O)(C(=O)N2CCCC(CC3CCN(c4ccc(C(=O)N(C)C)c(Cl)c4)CC3)CC2)C(F)(F)F)c1 (stereo partly drawn) [Example 2-161, 2-chloro-N,N-dimethyl-4-[4-({1-[(2R)-3,3,3-trifluoro-2-hydroxy-2-(3-methoxy-phenyl)propanoyl]azepan-4-yl}methyl)piperidin-1-yl]benzamide]	28%	7.89	0%	NO IP	–	–	–	–
O=C(c1ccc(N2CCC(CC3CCN(C(=O)[C@](O)(c4ccccc4)C(F)(F)F)CC3)CC2)cc1Cl)N1CCC(c2ccncc2)C1 (stereo partly drawn) [Example 4-17, (2R)-3-{4-[(1-{3-chloro-4-[(3-pyridin-4-ylpyrrolidin-1-yl)carbonyl]phenyl}piperidin-4-yl)methyl]piperidin-1-yl}-1,1,1-trifluoro-3-oxo-2-phenylpropan-2-ol]	45%	6.57	27%	–	5.99	–	–	–
CN(C)C(=O)c1ccc(N2CCC(CC3CCN(C(=O)C(O)(c4ccccc4)c4ccccc4)CC3)CC2)nc1Cl [Example 7-95, 2-chloro-6-[4-({1-[hydroxy(diphenyl)acetyl]piperidin-4-yl}methyl)piperidin-1-yl]-N,N-dimethylpyridine-3-carboxamide]	–	–	–	NO IP	–	98 nM	21%	1%
CN(C)C(=O)c1ccc(N2CCC(CC3CCN(C(=O)C(F)(F)c4cccc(Cl)c4)CC3)CC2)nc1Cl [Example 7-81, 2-chloro-6-[4-({1-[(3-chlorophenyl) (difluoro)acetyl]piperidin-4-yl}methyl)piperidin-1-yl]-N,N-dimethylpyridine-3-carboxamide]	51%	6.69	19%	NO IP	–	–	–	–
COc1cccc(C(O)(C(=O)N2CCC(CCC3CCN(c4ccc(C(=O)N(C)C)c(Cl)c4)CC3)CC2)C(F)(F)F)c1 (stereo not shown) [Example 2-163, 2-chloro-N,N-dimethyl-4-[4-(2-{1-[3,3,3-trifluoro-2-hydroxy-2-(3-methoxyphenyl)propanoyl]piperidin-4-yl}ethyl)piperidin-1-yl]benzamide]	39%	6.14	0%	NO IP	–	–	–	–
CNC(=O)c1ccc(N2CCC(OC3CCN(C(=O)C4(c5ccccc5F)CCCC4)CC3)CC2)cc1Cl [Example 7-27, 2-chloro-4-{4-[(1-{[1-(2-fluorophenyl)cyclopentyl]carbonyl}piperidin-4-yl)oxy]piperidin-1-yl}-N-methylbenzamide]	113%	6.35	27%	–	5.36	–	–	–
CN(C)C(=O)c1ccc(N2CCC(CC3CCN(C(=O)[C@](O)(c4cc(F)cc(F)c4)C(F)(F)F)CC3)CC2)cc1Cl [Example 2-94, 2-chloro-4-[4-({1-[(2R)-2-(3,5-difluoro-phenyl)-3,3,3-trifluoro-2-hydroxy-propanoyl]piperidin-4-yl}methyl)piperidin-1-yl]-N,N-dimethyl-benzamide]	89%	8.40	48%	–	7.30	–	–	–
CCOc1cccc([C@@](O)(C(=O)N2CCC(CC3CCN(c4ccc(C(=O)N(C)C)c(C5CC5)n4)CC3)CC2)C(F)(F)F)c1 [Example 7-12, 2-cyclopropyl-6-[4-({1-[(2R)-2-(3-ethoxyphenyl)-3,3,3-trifluoro-2-hydroxypropanoyl]piperidin-4-yl}methyl)piperidin-1-yl]-N,N-dimethylpyridine-3-carboxamide]	71%	7.62	6%	NO IP	–	–	–	–
CNC(=O)c1ccc(N2CCC(CC3CCN(C(=O)C4(c5ccccc5F)CCCC4)CC3)CC2)cc1Cl [Example 7-34, 2-chloro-4-{4-[(1-{[1-(2-fluorophenyl)cyclopentyl]carbonyl}piperidin-4-yl)methyl]piperidin-1-yl}-N-methylbenzamide]	82%	6.77	19%	–	5.66	–	–	–
Cc1cc(Cl)cc([C@@](O)(C(=O)N2CCC(CC3CCN(c4ccc(C(=O)N(C)C)c(Cl)c4)CC3)CC2)C(F)(F)F)c1 [Example 2-111, 2-chloro-4-[4-({1-[(2R)-2-(3-chloro-5-methylphenyl)-3,3,3-trifluoro-2-hydroxy-propanoyl]piperidin-4-yl}methyl)piperidin-1-yl]-N,N-dimethyl-benzamide]	28%	8.15	0%	NO IP	–	–	–	–
COc1cccc([C@@](O)(C(=O)N2CCC(CC3CCN(c4ccc(C(=O)N(C)C)c(C)c4)CC3)CC2)C(F)(F)F)c1 [Example 2-158, N,N,2-trimethyl-4-[4-({1-[(2R)-3,3,3-trifluoro-2-hydroxy-2-(3-methoxyphenyl)propanoyl]piperidin-4-yl}methyl)piperidin-1-yl]benzamide]	44%	7.70	6%	NO IP	–	–	–	–

More lines, in order of rising pEC50 [1, 4], values ahead:

Emax [1, 3]	pEC50 [1, 4]	Emax [2, 3]	LXR alpha IP (nM) [2]	pEC50 [2]	SMILES	EC50 ([1]; LXR beta IP (nM), potency (Inflection Point, IP), co-activator recruitment to LXRbeta LBD, in relation to T0901317)	Emax [1]	Emax [2]
34%	7.14	9%	NO IP	–	CN(C)C(=O)c1ccc(N2CCC(CC3CCN(C(=O)C(O)(c4ccnc(C(F)(F)F)c4)C(F)(F)F)CC3)CC2)cc1Cl (stereo not shown) [Example 2-40, 2-chloro-N,N-dimethyl-4-{4-[(1-{3,3,3-trifluoro-2-hydroxy-2-[2-(trifluoromethyl)pyridin-4-yl]propanoyl}piperidin-4-yl)methyl]piperidin-1-yl}benzamide]	–	–	–
74%	7.37	38%	–	6.40	CN(C(=O)c1ccc(N2CCC(CC3CCN(C(=O)[C@](O)(c4ccccc4)C(F)(F)F)CC3)CC2)cc1Cl)C1CC1 [Example 4-11, 2-chloro-N-cyclopropyl-N-methyl-4-[4-({1-[(2R)-3,3,3-trifluoro-2-hydroxy-2-phenylpropanoyl]piperidin-4-yl}methyl)piperidin-1-yl]benzamide]	–	–	–
46%	7.85	4%	NO IP	–	Cc1cc(N2CCC(CC3(C)CCN(C(=O)[C@](O)(c4cccc(Cl)c4)C(F)(F)F)CC3)CC2)ccc1C(=O)N(C)C [Example 2-76, 4-[4-({1-[(2R)-2-(3-chloro-phenyl)-3,3,3-trifluoro-2-hydroxy-propanoyl]-4-methylpiperidin-4-yl}methyl)piperidin-1-yl]-N,N,2-trimethyl-benzamide]	–	–	–
110%	7.96	35%	–	6.28	CN(C)C(=O)c1ccc(N2CCC(CC3CN(C(=O)[C@](O)(c4cccc(Cl)c4)C(F)(F)F)C3)CC2)nc1Cl [Example 7-41, 2-chloro-6-[4-({1-[(2R)-2-(3-chlorophenyl)-3,3,3-trifluoro-2-hydroxypropanoyl]azetidin-3-yl}methyl)piperidin-1-yl]-N,N-dimethylpyridine-3-carboxamide]	–	–	–
20%	8.10	0%	NO IP	–	CN(C)C(=O)c1ccc(N2CCC(CC3CCN(C(=O)[C@](O)(c4cccc(N(C)C)c4)C(F)(F)F)CC3)CC2)cc1Cl [Example 2-98]	–	–	–
18%	8.15	0%	NO IP	–	COc1cccc([C@@](O)(C(=O)N2CCC(C)(CC3CCN(c4ccc(C(=O)N(C)C)c(Cl)c4)CC3)CC2)C(F)(F)F)c1 [Example 2-45, 2-chloro-N,N-dimethyl-4-[4-({4-methyl-1-[(2R)-3,3,3-trifluoro-2-hydroxy-2-(3-methoxyphenyl)propanoyl]piperidin-4-yl}methyl)piperidin-1-yl]benzamide]	–	–	–
